In the assay the test system is cancer cells. Put plainly: MTS assay: inhibition of cell growth (formazan absorbance at 492 nm after 72 hours with test compound). The following applies: inhibition class. Format: cell-based. How it is done: Cells were maintained at 37° C., 5% CO2 in DMEM media supplemented with 1% fetal bovine serum, penicillin/streptomycin and fungizone (Invitrogen). Cells were seeded into 96-well tissue culture plates at 3000 per well and cultured at 37° C. for 18 hours. Test compounds were dissolved and diluted to 300× in DMSO then diluted 1:40 in DMEM. Cells were incubated with test compounds for 72 hours followed by incubation with tetrazolium compound (3-(4,5-dimethylthiazol-2-yl)-5-(3-carboxymethoxyphenyl)-2-(4-sulfophenyl)-2H-tetrazolium, inner salt; MTS) and the electron coupling reagent, phenazine methosulfate (PMS) for 4 hours. […] The ability of compounds to inhibit cell growth in this assay is correlated with the reduction of dehydrogenase enzyme activity found in metabolically active cells. The measurement of the absorbance of the formazan was assessed using an ENVISION™ (Perkin Elmer) microplate reader at 492 nm. The calculated IC50 value is the concentration of the test compound that causes a 50% decrease in the absorbance. […] A=>79% inhibition, B=>50 to 79% inhibition, C=<50% inhibition.

Setting [1] is: Homo sapiens, DLD-1 cells, read-out: DLD-1, MTS 72 hours at 10 uM.
Setting [2] is: Homo sapiens, KATO III cells, read-out: KATO III, MTS 72 hours at 10 uM.
Setting [3] is: Homo sapiens, MDA-MB-231 cells, read-out: MDA-MB-231, MTS 72 hours at 10 uM.
The mark [4] stands for this setting: Homo sapiens, NCI-H1299 cells, read-out: NCI-H1299, MTS 72 hours at 10 uM.
[5] abbreviates: Homo sapiens, PC-3 cells, read-out: PC-3, MTS 72 hours at 10 uM.
The mark [6] stands for this setting: PACA-2 cells, read-out: PACA-2, MTS 72 hours at 10 uM.

Read-outs that look alike come from different tables or passages of the source. Some results are limits rather than exact numbers.

For `FC(F)(F)c1cccc(N2CCN(c3nc4c5c(n[nH]c5n3)CCN4Cc3ccccc3)CC2)c1` [Compound 38, 6-benzyl-4-{4-[3-(trifluoromethyl)phenyl]piperazin-1-yl}-2,6,7,8-tetrahydro-1,2,3,5,6-pentaazaacenaphthylene], the inhibition at 10 µM under setting [1] is < 50%; the inhibition at 10 µM under setting [2] is < 50%; the inhibition at 10 µM under setting [3] is < 50%; the inhibition at 10 µM under setting [4] is < 50%; the inhibition at 10 µM under setting [5] was < 50%; the inhibition at 10 µM under setting [6] was < 50%.
Consider `COc1cccc(CCNc2nc3c4c(n[nH]c4n2)CCN3Cc2ccccc2)c1OC` [Compound 39, 6-benzyl-N-[2-(2,3-dimethoxyphenyl)ethyl]-2,6,7,8-tetrahydro-1,2,3,5,6-pentaazaacenaphthylen-4-amine], for which the inhibition at 10 µM runs as follows: under setting [1], < 50%; under setting [2], < 50%; under setting [3], < 50%; under setting [4], < 50%; under setting [5], < 50%; under setting [6], < 50%.
As for `c1ccc(CN2CCc3n[nH]c4nc(NCc5ccc(Oc6ccccc6)cc5)nc2c34)cc1` [Compound 40], the inhibition at 10 µM is < 50% under setting [1]; 50 to 79% under setting [2]; < 50% under setting [3]; 50 to 79% under setting [4]; < 50% under setting [5]; 50 to 79% under setting [6].
Consider `CN1CCCC1CCNc1nc2c3c(n[nH]c3n1)CCN2Cc1ccccc1` (stereo not drawn) [Compound 41, 6-benzyl-N-[2-(1-methylpyrrolidin-2-yl)ethyl]-2,6,7,8-tetrahydro-1,2,3,5,6-pentaazaacenaphthylen-4-amine], for which the inhibition at 10 µM is < 50% under setting [1]; < 50% under setting [2]; 50 to 79% under setting [3]; < 50% under setting [4]; < 50% under setting [5]; < 50% under setting [6].
With `c1ccc(CN2CCc3n[nH]c4nc(N5CCN6CCCC6C5)nc2c34)cc1` (stereo not drawn) [Compound 42, 6-benzyl-4-(hexahydropyrrolo[1,2-a]pyrazin-2(1H)-yl)-2,6,7,8-tetrahydro-1,2,3,5,6-pentaazaacenaphthylene], the inhibition at 10 µM was < 50% under setting [1]; < 50% under setting [2]; < 50% under setting [3]; < 50% under setting [4]; < 50% under setting [5]; < 50% under setting [6].
Regarding `COc1ccccc1N1CCN(c2nc3c4c(n[nH]c4n2)CCN3Cc2ccccc2)CC1` [Compound 43, 6-benzyl-4-[4-(2-methoxyphenyl)piperazin-1-yl]-2,6,7,8-tetrahydro-1,2,3,5,6-pentaazaacenaphthylene], the inhibition at 10 µM is, setting by setting: under setting [1], < 50%; under setting [2], > 79%; under setting [3], > 79%; under setting [4], < 50%; under setting [5], > 79%; under setting [6], < 50%.
For `c1ccc(CN2CCc3n[nH]c4nc(N5CCN(c6ccccc6)CC5)nc2c34)cc1` [Compound 44, 6-benzyl-4-(4-phenylpiperazin-1-yl)-2,6,7,8-tetrahydro-1,2,3,5,6-pentaazaacenaphthylene], the inhibition at 10 µM under setting [1] was < 50%; the inhibition at 10 µM under setting [2] is < 50%; the inhibition at 10 µM under setting [3] is < 50%; the inhibition at 10 µM under setting [4] was < 50%; the inhibition at 10 µM under setting [5] was < 50%; the inhibition at 10 µM under setting [6] is < 50%.
`c1ccc(CC2CCN(c3nc4c5c(n[nH]c5n3)CCN4Cc3ccccc3)CC2)cc1` [Compound 45, 6-benzyl-4-(4-benzylpiperidin-1-yl)-2,6,7,8-tetrahydro-1,2,3,5,6-pentaazaacenaphthylene]: the inhibition at 10 µM under setting [1] was < 50%; the inhibition at 10 µM under setting [2] is < 50%; the inhibition at 10 µM under setting [3] was < 50%; the inhibition at 10 µM under setting [4] is < 50%; the inhibition at 10 µM under setting [5] was < 50%; the inhibition at 10 µM under setting [6] was < 50%.
For the molecule `Fc1ccc(CCNc2nc3c4c(n[nH]c4n2)CCN3Cc2ccccc2)cc1` [Compound 46, 6-benzyl-N-[2-(4-fluorophenyl)ethyl]-2,6,7,8-tetrahydro-1,2,3,5,6-pentaazaacenaphthylen-4-amine], the inhibition at 10 µM under setting [1] was > 79%; the inhibition at 10 µM under setting [2] was > 79%; the inhibition at 10 µM under setting [3] is > 79%; the inhibition at 10 µM under setting [4] was 50 to 79%; the inhibition at 10 µM under setting [5] is < 50%; the inhibition at 10 µM under setting [6] was > 79%.
On to `COc1ccc(CNc2nc3c4c(n[nH]c4n2)CCN3Cc2ccccc2)cc1OC` [Compound 47, 6-benzyl-N-(3,4-dimethoxybenzyl)-2,6,7,8-tetrahydro-1,2,3,5,6-pentaazaacenaphthylen-4-amine], for which the inhibition at 10 µM runs as follows: under setting [1], < 50%; under setting [2], < 50%; under setting [3], < 50%; under setting [4], < 50%; under setting [5], < 50%; under setting [6], < 50%.
For `COc1ccccc1CCNc1nc2c3c(n[nH]c3n1)CCN2Cc1ccccc1` [Compound 48, 6-benzyl-N-[2-(2-methoxyphenyl)ethyl]-2,6,7,8-tetrahydro-1,2,3,5,6-pentaazaacenaphthylen-4-amine], the inhibition at 10 µM runs as follows: under setting [1], < 50%; under setting [2], < 50%; under setting [3], 50 to 79%; under setting [4], < 50%; under setting [5], < 50%; under setting [6], < 50%.
As to `c1ccc(CN2CCc3n[nH]c4nc(NC5CCC5)nc2c34)cc1` [Compound 49, 6-benzyl-N-cyclobutyl-2,6,7,8-tetrahydro-1,2,3,5,6-pentaazaacenaphthylen-4-amine], the inhibition at 10 µM runs as follows: under setting [1], < 50%; under setting [2], < 50%; under setting [3], 50 to 79%; under setting [4], < 50%; under setting [5], < 50%; under setting [6], < 50%.
With `COc1cc(CNc2nc3c4c(n[nH]c4n2)CCN3Cc2ccccc2)cc(OC)c1OC` [Compound 50, 6-benzyl-N-(3,4,5-trimethoxybenzyl)-2,6,7,8-tetrahydro-1,2,3,5,6-pentaazaacenaphthylen-4-amine], the inhibition at 10 µM is < 50% under setting [1]; < 50% under setting [2]; < 50% under setting [3]; < 50% under setting [4]; < 50% under setting [5]; < 50% under setting [6].
On to `O=C1CCCN1CCCNc1nc2c3c(n[nH]c3n1)CCN2Cc1ccccc1` [Compound 51, 1-{3-[(6-benzyl-2,6,7,8-tetrahydro-1,2,3,5,6-pentaazaacenaphthylen-4-yl)amino]propyl}pyrrolidin-2-one], for which the inhibition at 10 µM is < 50% under setting [1]; < 50% under setting [2]; < 50% under setting [3]; < 50% under setting [4]; < 50% under setting [5]; < 50% under setting [6].
For the molecule `CCC(C)Nc1nc2c3c(n[nH]c3n1)CCN2Cc1ccccc1` (stereo not drawn) [Compound 52, 6-benzyl-N-sec-butyl-2,6,7,8-tetrahydro-1,2,3,5,6-pentaazaacenaphthylen-4-amine], the inhibition at 10 µM runs as follows: under setting [1], > 79%; under setting [2], > 79%; under setting [3], > 79%; under setting [4], 50 to 79%; under setting [5], < 50%; under setting [6], 50 to 79%.
Consider `O=C(c1ccco1)N1CCN(c2nc3c4c(n[nH]c4n2)CCN3Cc2ccccc2)CC1` [Compound 53, 6-benzyl-4-[4-(2-furoyl)piperazin-1-yl]-2,6,7,8-tetrahydro-1,2,3,5,6-pentaazaacenaphthylene], for which the inhibition at 10 µM reads like this: under setting [1], < 50%; under setting [2], < 50%; under setting [3], 50 to 79%; under setting [4], < 50%; under setting [5], < 50%; under setting [6], < 50%.
Regarding `c1ccc(CN2CCc3n[nH]c4nc(NCc5ccco5)nc2c34)cc1` [Compound 54, 6-benzyl-N-(2-furylmethyl)-2,6,7,8-tetrahydro-1,2,3,5,6-pentaazaacenaphthylen-4-amine], the inhibition at 10 µM is < 50% under setting [1]; < 50% under setting [2]; < 50% under setting [3]; < 50% under setting [4]; < 50% under setting [5]; < 50% under setting [6].
As to `c1ccc(CN2CCc3n[nH]c4nc(NCC5CCCCC5)nc2c34)cc1` [Compound 55, 6-benzyl-N-(cyclohexylmethyl)-2,6,7,8-tetrahydro-1,2,3,5,6-pentaazaacenaphthylen-4-amine], the inhibition at 10 µM reads like this: under setting [1], > 79%; under setting [2], > 79%; under setting [3], > 79%; under setting [4], 50 to 79%; under setting [5], < 50%; under setting [6], < 50%.

The values above are taken from US8343983B2, “Substituted pyrazolo-pyrimidine compounds” (ArQule, Inc., priority 2009, dated 2013).
